Measurements taken from patent publication US9849198B2, “Discrete imaging of hepatic oxidative and nitrosative stress with two-channel nanoparticles for in vivo drug safety screening” (The Board of Trustees of the Leland Stanford Junior …, priority 2013, dated 2017).
Blank lines part the entries; values can stand above or below the compound they belong to.

What was measured:
[1] = test system: APAP-induced hepatic ROS and RNS production; test: In vivo monitoring of remediation of APAP-induced hepatotoxicity with enzyme inhibitors and antioxidant scavengers; parameters: species or system mice; conditions: for FL index / ONOO/HOCl production in liver / luminescence emission / H2O2 production in liver: APAP 300 mg/kg i.p. with GSH 200 mg/kg i.v., 1-ABT 2×100 mg/kg i.p. or t-1,2-DCE 0.2 mg/kg i.p.
Experimental: To this end, the effects of inhibitors of APAP bioactivation on in vivo hepatic ROS and RNS production were evaluated using the CF-SPNs of the disclosure (FIGS. 4A, 4C, and 4D).
Without wishing to be bound by any one theory, a mechanism for APAP bioactivation involves CYP450-mediated oxidation to an iminoquinone, N-acetylparaquinonimine (NAPQI), which can bind directly to cellular proteins to induce mitochondrial dysfunction and the production of ONOO, or undergo reduction by molecular oxygen to form superoxide (O2.^−) and H2O2 (FIG. 4B).
For inhibitor studies, animals were treated with 200 mg/kg of GSH intravenously 5 min prior to drug treatment (James et al., (2003) Toxicol. Sci. 75: 458-467), with 0.2 mg/kg t-1,2-DCE intraperitoneally 2 h prior to drug treatment (Jackson et al., (2000) Toxicol. Sci. 55: 266-273), or with 100 mg/kg 1-ABT intraperitoneally 12 and 24 h prior to drug treatment (as described in Jackson et al., (2000) Toxicol. Sci. 55: 266-273).

[2] = test system: drug-induced hepatic oxidative and nitrosative stress; test: Real-time in vivo CF-SPN imaging of drug-induced hepatotoxicity (chemiluminescence and fluorescence index); parameters: species or system female nude mice
Experimental: Female nude mice were administered a given dose of APAP intraperitoneally, anesthetized, and fitted with tail vein catheters.
All animal experiments involved 8-10 week old female nude mice (Charles River Laboratories International, Inc., Mass., USA). Animals were fasted for 8 h prior to imaging for all drug-induced hepatotoxicity imaging. Animals were treated intraperitoneally with sterilized saline solutions of APAP (10 mg/mL) or INH (10 mg/mL) and were then anesthetized with intraperitoneal injection of 100 mg/kg ketamine and 10 mg/mL xylazine. A tail vein catheter was inserted, and the mice were placed in an IVIS® Spectrum imaging system. Fifteen minutes after the administration of drug, 0.8 mg CF-SPN was injected intravenously through the tail vein catheter, and imaging began immediately. Luminescence images were acquired for 3 min with an open filter, and fluorescence images were acquired using autoexposure with excitation of 580±10 nm, and emission at both 680±10 nm and 820±10 nm.
Luminescence data was processed using Living Image software (v. 4.3.1, Perkin Elmer, Mass., USA) for all experiments, in addition to fluorescence data for biodistribution experiments. For fluorescent ratiometric mapping of liver intensity, image scale bars were normalized, with the scale set to a red color scheme.
Fluorescence images without photograph overlay were exported as TIFF, read into Matlab® (v. 8.0.0.783, The MathWorks Inc., CO, USA) where the percent difference between the fluorescence intensity at 680 nm and 820 nm was mapped for the liver region of interest. To plot the fluorescence index (FL index) over time, fluorescence intensities of the liver region of interest were extracted for images acquired with emission at 680 nm and at 820 nm using Living Image software. The intensity values, measured in units of radiance efficiency, were exported to Excel® where the percent difference in emission intensity at 680 nm and 820 nm was calculated. Finally, the FL index was calculated as the ratio of the percent difference of drug treated animals to that of control animals. All statistical analyses were performed using Prism software (v. 5.0c, GraphPad Software Inc., CA, USA).

liver tissue = test: Histology (H&E), nitrotyrosine immunohistochemistry and TUNEL staining of liver after drug challenge; format: in vivo, mice
Experimental: The correlation of an imaging biomarker with histological changes in the tissue of interest is desirable to validate the use of a biomarker for indicating an intended pathological outcome. To this end, histological and immunohistochemical analysis of liver tissue was performed on mice 45 min (FIGS. 3D and 11) and 180 min (FIGS. 3E and 11) following treatment with the indicated doses of APAP.
Animals were imaged longitudinally for the indicated lengths of time, warmed until observable sternal recumbence, and then returned to their cage. Animals were euthanized 180 min following drug treatment, and their livers were resected and placed into buffered formalin for histological examination. A separate set of animals was fasted, treated with drug, and their livers were resected after euthanasia to provide tissues for histological examination 45 min following drug treatment.
All tissues were embedded in paraffin prior to 10 micron sectioning. Histology samples were stained by hematoxylin and eosin under standard protocols. Immunohistochemistry samples were processed using an anti-nitrotyrosine primary antibody (Life Technologies Inc., NY, USA) at 1:500 dilution, with color development according to the protocol described in the DAKO LSB+ kit. Endogenous peroxidases were quenched prior to processing. TUNEL staining was performed according to the manufacturer instructions using the ApopTag Plus Peroxidase In Situ Apoptosis Kit (EMD Millipore, Mass., USA). All images were acquired using an Olympus IX2-UCB (Olympus America Inc., PA, USA) inverted fluorescence microscope equipped with a Nuance (CRi Inc., MA, USA) hyperspectral camera capable of brightfield full color imaging.

liver H2O2 = test: Extension of H2O2 detection window by readministration of CF-SPN after APAP; format: in vivo, mice; conditions: APAP 300 mg/kg i.p.
Experimental: FIG. 10A illustrates extension luminescent images of the time course of H2O2 detection after drug challenge by readministration of CF-SPN. Mice were administered 300 mg/kg APAP (top row, 1-4) or saline (bottom row, 5-8) i.p., followed by the administration of 0.8 mg CF-SPN i.v. After 25 min, CF-NP was readministered i.v.
FIG. 10B is a graph illustrating the quantitation of liver luminescence. Black arrow in indicates CF-SPN readministration. Numbers on images correspond to time points indicated on plot.
This elevation in luminescence from APAP overdose was sustained over the time course of imaging (FIG. 3B). However, due to the baseline consumption of CPPO that had been observed in mouse serum (FIG. 7B), the ability to extend the H2O2 detection window with the re-administration of CF-SPN was assessed (FIG. 10). The re-administration of CF-SPN following treatment with a hepatotoxic dose of APAP (300 mg/kg) produced an elevated luminescence signal having approximately 50% of the intensity of the initial CF-SPN injection.

[3] = anti-tuberculosis chemotherapy; cited from earlier work
[4] = test system: drug-induced liver production of H2O2; conditions: APAP 300 mg/kg i.p.; 0.2 mg luminol i.v., dose equal to CPPO in 0.8 mg CF-SPN
[5] = 200, 100, 50 mg/kg i.p., 0.8 mg CF-SPN i.v.

Structure (SMILES): Nn1nnc2ccccc21 [1-ABT, 1-aminobenzotriazole]
- duration of H2O2 production after CF-SPN administration ([1]; APAP 300 mg/kg i.p. with 1-ABT 2×100 mg/kg i.p.): less than 20 min
- FL index / ONOO/HOCl production in liver [1]: suppressed ONOO/HOCl production to the same extent
- luminescence emission / H2O2 production in liver [1]: intense but short-lived

- foci positive for protein nitrotyrosyl residues or TUNEL (DNA fragmentation) (liver tissue; 45 min after drug administration): no foci positive
- time after administration within which a significant decrease in H2O2 production occurs (liver H2O2): ≤ 60 min
Structure (SMILES): CC(=O)Nc1ccc(O)cc1 [APAP, acetaminophen]
- liver chemiluminescence (H2O2) ([2]; 150 mg/kg and 75 mg/kg i.p., 0.8 mg CF-SPN i.v.): only baseline luminescence similar to untreated mice
- liver chemiluminescence (H2O2) ([2]; 300 mg/kg i.p., by 18 min after start of imaging, 0.8 mg CF-SPN i.v.): significant enhancement in signal
- elevation in percent difference between fluorescence emission at 680 nm and 820 nm (ONOO/HOCl) ([2]; 53 min after CF-SPN administration, doses 300, 150, 75 mg/kg i.p.): only observed for mice receiving 300 mg/kg APAP
- timing of increase in ONOO/HOCl generation (FL index) ([2]; APAP overdose 300 mg/kg i.p.): later than the generation of H2O2
- histological changes in liver tissue (hematoxylin/eosin) (liver tissue; 45 min after drug challenge, any dose level (300, 150, 75 mg/kg)): No histological changes
- immunohistochemical and histological findings in liver (liver tissue; 180 min after administration, 300 mg/kg): significant protein nitrotyrosyl and TUNEL-positive foci, as well as hepatocellular degeneration characteristic of APAP-induced oncotic necrosis
- immunohistochemical or histological changes to liver tissue (liver tissue; lower doses (150 mg/kg, 75 mg/kg)): did not induce immunohistochemical or histological changes to liver tissue

Structure (SMILES): N[C@@H](CCC(=O)N[C@@H](CS)C(=O)NCC(=O)O)C(=O)O [GSH, glutathione]
- FL index / ONOO/HOCl production in liver [1]: reduced level of H2O2 and ONOO/HOCl production relative to mice receiving APAP alone, but still elevated
- luminescence emission / H2O2 production in liver [1]: reduced level of H2O2 and ONOO/HOCl production relative to mice receiving APAP alone, but still elevated

Structure (SMILES): NNC(=O)c1ccncc1 [INH, isoniazid]
- dose dependence of H2O2 production (chemiluminescence) [2, 5]: threshold dose-type production
- dose dependence of ONOO/HOCl production (fluorescence index) [2, 5]: dose-dependent enhancement
- kinetics of oxidative stress compared with APAP ([2]; i.p., chemiluminescent channel): more short-lived oxidative burst
- kinetics of nitrosative stress compared with APAP ([2]; i.p., fluorescent channel): more rapidly developed and sustained induction of nitrosative stress
- severity of liver tissue degradation (histology, H&E) (liver tissue; 180 min after drug administration, 200, 100, 50 mg/kg i.p.): dose-dependent increase in the severity of liver tissue degradation
- patients with associated hepatotoxicity [3]: ≤ 25%

Structure (SMILES): Nc1cccc2c(=O)[nH][nH]c(=O)c12 [Luminol, luminol]
- luminescent signal from liver after APAP overdose [4]: did not produce any detectable luminescent signal

Structure (SMILES): Cl/C=C/Cl [t-1,2-DCE, trans-1,2-dichloroethylene]
- FL index / ONOO/HOCl production in liver [1]: suppressed ONOO/HOCl production to the same extent
- luminescence emission / H2O2 production in liver [1]: completely prevent H2O2 production
